The source of these data is article PMC10488051, “Screening, Synthesis and Biochemical Characterization of SARS-CoV-2 Protease Inhibitors” (International Journal of Molecular Sciences, 2023).

Several values for one entry are separate records, joined by “and”; a condition that tells them apart may be missing. Equal entries are not always repeated. Entries after “also recorded” stand apart in the source; their conditions may differ.

For assay [1], the target named is T1, M^pro (Severe acute respiratory syndrome coronavirus 2, UniProt P0DTD1). It counts as binding.
The next assay concerns the target PL^pro (Severe acute respiratory syndrome coronavirus 2, UniProt P0DTD1). In kind it is binding.
The target of a further assay is SARS-CoV-2 M^pro (Severe acute respiratory syndrome coronavirus 2, UniProt P0DTD1). As to the kind of experiment: biochemical. It counts as biochemical. The note with it: Table 2 disulfide compounds; enzymatic inhibition assay, 25 °C, pH 7.5.
Another assay addresses SARS-CoV-2 PL^pro (Severe acute respiratory syndrome coronavirus 2, UniProt P0DTD1). As to the kind of experiment: PL^pro enzymatic inhibition assay (FRET-based, Z-RLRGG-AMC substrate). The note with it: Table 2 disulfide compounds; enzymatic inhibition assay, 25 °C, pH 7.5; PL^pro dialyzed to avoid DTT. It counts as biochemical.
In the next assay the target is wt PL^pro (Severe acute respiratory syndrome coronavirus 2, UniProt P0DTD1).
The test system of the next assay is SARS-CoV-2. The following applies: patients with mild-to-moderate COVID-19; cited from earlier work.
Assay [2] deals with T1, M^pro. The note with it: cited from earlier work.
[3] abbreviates: no reducing agents, 1 h incubation at room temperature.

Take `Nc1ccccc1SSc1ccccc1N` [Compound 32]: the “Covalent binding to M^pro by mass spectrometry” value at M^pro [1] (setting [3]) was “covalent binding of 32 with PL^pro and M^pro was confirmed”. Further, the “Mass shift of M^pro-compound adduct (major peak)” value at M^pro [1] (protein/ligand molar ratio 1:10) was 245.73 Da and 245.7 Da. Besides, the “Covalent binding to PL^pro by mass spectrometry” value at PL^pro (setting [3]) is “covalent binding of 32 with PL^pro and M^pro was confirmed”. In addition, the “Mass shift of PL^pro-compound adduct (major peak)” value on PL^pro (protein/ligand molar ratio 1:5 for 32) is given as 123.13 Da. The values for the Kd on SARS-CoV-2 M^pro and on SARS-CoV-2 PL^pro were 2.8 µM and 0.54 µM, respectively. Also, the “Thermal effect (Tm) on wild-type PL^pro” value on wt PL^pro is listed as “strongly destabilized the native PL^pro; also recorded: thermal destabilization effect (Tm decrease) induced by 32 is seen only for wild-type PL^pro”.
With `Cn1cnc(Cn2c(=O)[nH]/c(=N\c3cc4cn(C)nc4cc3Cl)n(Cc3cc(F)c(F)cc3F)c2=O)n1` [S-217622], in the assay on SARS-CoV-2, the “Antiviral efficacy in patients” value was “rapid and favorable antiviral efficacy”.
For the molecule `CCN(CC)C(=S)SSC(=S)N(CC)CC` [disulfiram], the “Covalent interaction with cysteine residues of M^pro” value on M^pro [2] was “interact covalently with cysteine residues of M^pro”.
